The nature of series [1]: Cytotoxicity in HL-60 cells. An excerpt:
(§1) We hypothesized that modifications designed to enhance electrostatic interactions between the peptide and C/EBPβ would increase potency. A panel of 46 rationally-designed peptides probing the molecular packing of non-leucine amino acids of the peptide antagonist with that of the C/EBPβ bZIP domain were synthesized and screened for cytotoxic activity.

In series [2] the test system is HL-60 promyelocytic leukemia cells. The series is described as follows: Cytotoxicity in HL-60 cells.
Source text: as §1

The target of series [3] is C/EBPβ (plate-bound, competitive ELISA). The series can be described thus: ELISA: 3.6 ng plate-bound C/EBPβ, ATF5 in solution. Background: ELISA stands for enzyme-linked immunosorbent assay.
Series [4] deals with C/EBPβ (Homo sapiens, UniProt P17676). The series can be described thus: ELISA, ATF5 binding to plate-bound C/EBPβ. Conditions: 3.6 ng C/EBPβ plate-bound.
Protocol: C/EBPβ (3.6 ng/well) was immobilized to a 384-well plate (Nunc MaxiSorp, ThermoSci) by overnight incubation at 4° C. Non-bound protein was removed by three washes with tris-buffered saline (TBS)+0.1% Tween (TBST), and wells were then blocked for 1 hr at 4° C. with 5% bovine serum albumin in TBS.
Plate-bound ATF5 was detected by 1-hr incubations at 4° C. of 1:1000 dilution rabbit-anti-ATF5 antibody (ab60126, Abcam) followed by 1:1000 goat-anti-rabbit IgG-HRP antibody (ab6721, Abcam), with three washes with TBST after each antibody incubation, and 50 μL TMB substrate. The reaction was stopped by addition of 25 μL 2.5M sulfuric acid, and absorbance was detected at 450 nm using a SpectraMax M3 plate reader (Molecular Devices).

From patent publication US20230218717A1, “Administration of CEBP-Beta Antagonist and Methods of Use” (Sapience Therapeutics, Inc., priority 2020, published 2023) come the findings set out here.

Where no end group is shown, it is not given here.

Chain of C/EBPβ (P17676 whole entry, species assumed): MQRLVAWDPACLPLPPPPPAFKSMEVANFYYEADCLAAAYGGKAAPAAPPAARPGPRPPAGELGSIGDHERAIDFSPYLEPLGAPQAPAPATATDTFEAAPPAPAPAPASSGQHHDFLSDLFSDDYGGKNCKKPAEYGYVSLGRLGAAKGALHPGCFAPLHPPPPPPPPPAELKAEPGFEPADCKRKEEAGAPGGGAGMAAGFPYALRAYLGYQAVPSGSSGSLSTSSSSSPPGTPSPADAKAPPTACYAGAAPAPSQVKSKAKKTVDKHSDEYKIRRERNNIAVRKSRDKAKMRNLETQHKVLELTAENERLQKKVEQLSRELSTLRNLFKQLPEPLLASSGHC
Chain of C/EBPβ (plate-bound, competitive ELISA) (P17676 whole entry): as the sequence (P17676 whole entry, species assumed) above

One may read the EC50 as the concentration needed to bring the measured effect to its halfway point. Low values mean a more potent agent, high ones a less potent agent. “RQIKIWFQNRRMKWKKLEGRAQGLRAELRELEERAEAV [“winner” peptide]” had a half-maximal effective concentration (EC50) in series [1] of 5.5 ± 0.5 µM. Also, in series [2] (HL-60 cytotoxicity EC50), the “increase in potency vs. the parent peptide” value is reported as 3.2 fold.
The Kd is a measure of binding affinity in units of concentration. Lower therefore signals a tighter complex. Molecule recombinant ATF5 had a Kd in series [3] of 0.001 µM.
“22-amino acid section of native ATF5 bZIP domain, LEGECQGLEARNRELKERAESV, and a 16-amino acid penetratin domain [precursor peptide]” registered a 50% effective concentration (EC50) in series [2] of 17.4 ± 0.5 µM.

B1: ATF5: recombinant ATF5, activating transcription factor 5, binding partner of C/EBPβ (protein)
chain: MSLLATLGLELDRALLPASGLGWLVDYGKLPPAPAPLAPYEVLGGALEGGLPVGGEPLAGDGFSDWMTERVDFTALLPLEPPLPPGTLPQPSPTPPDLEAMASLLKKELEQMEDFFLDAPPLPPPSPPPLPPPPLPPAPSLPLSLPSFDLPQPPVLDTLDLLAIYCRNEAGQEEVGMPPLPPPQQPPPPSPPQPSRLAPYPHPATTRGDRKQKKRDQNKSAALRYRQRKRAEGEALEGECQGLEARNRELKERAESVEREIQYVKDLLIEVYKARSQRTRSC
For B1, the “Kd of ATF5 association with C/EBPβ” value in series [4] amounted to 0.001 µM.
